Results reported in patent publication US6285807A, “Fiber optic sensor for long-term analyte measurements in fluids” (Trustees of Tufts College, priority 1998, dated 2001).
Values joined by “and” are separate entries in the source; they are usually repeats but may differ in a detail not shown here. Equal entries are not always repeated. Where two headings read alike, the source gives them in different places.

Legend:
[1] = 13 and 14; at 21° C.; cited from earlier work
[2] = Sensor calibration for CO2, constants from theoretical fit (indicator in sensor); format: physicochemical; details: sensor (at 12° C.) (calculated)
Protocol: The calibration and operation of the sensor operation of the sensor is based on the Severinghaus electrode principle. When carbon dioxide crosses the membrane, the pH of the indicator solution is given by the Henderson-Hasselbach equation: [formula]
where aT =KH KM pCO2 KH /mol dm^3 atm^-1 is Henry's constant and KM is the membrane constant. Substituting Equation 7 into Equation 5 and rearranging gives: [formula]
The dissolved CO2 concentration was determined using Henry's constant [Cox, J. D., Head A. J. J Chem. Soc. Faraday Trans., 1962, 58, 1839]. […] Also, for this calculation the membrane volume was not corrected for the porosity, or water content, of the membrane. These parameters would have opposite effects. In the calibration, aT was assumed to equal the dissolved CO2 in the bulk solution, such that KM =1. The sensitivity of the sensor is approximately ±1 ppm.
The theoretical equation relating the fluorescence intensity. ratio to pCO2 was compared to test date and is shown by the solid curve in FIG. 6. The pHo value was calculated from Equation 5 using pKin while Io was derived from the above analysis. There was good agreement between experimental and theoretically-derived data.

[3] = 13 and 14; cited from earlier work
[4] = Absorbance/emission spectra of carboxy-SNAFL-1 (excitation at 488 nm); format: physicochemical; details: for Emission (Ex. = 488 nm) (acid): acid form; for Emission (Ex. = 488 nm) (acid) / Emission (Ex. = 488 nm) (base) / Emission (Ex. = 488 nm) (isos): at 21° C.; for Emission (Ex. = 488 nm) (base): base form; for Emission (Ex. = 488 nm) (isos): isosbestic
Excerpt: These peaks are centered at 540 nm and 620 nm and result from the protonated and deprotonated forms of the dyes respectively. This dual wavelength feature of the dye makes it particularly suitable for use in a ratiometric mode which accounts for system instabilities, such as photobleaching and lamp intensity fluctuations. This dye also has an isosbestic point at 625 run (Ex.=488 nm) which can be used for ratiometric measurements to assess the extent of dye photobleaching over time.
The maxima centered at 540 nm and 620 nm arise from the protonated and deprotonated forms of the dye respectively. [drawing 3]
The measurement system 100 comprises a Spectra Physics Model 162A-04 argon-ion laser 105 which provides excitation light radiation, typically at 488 nm. The excitation light is passed through a neutral density filter 110 and an angled dichroic mirror 115 to the proximal end 120 of an optical fiber 125 which conveys the excitation light to the distal end 130 of the fiber 125 and illuminates an optical interrogation zone 135 comprising a fluid sample volume with an indicator dye and analyte. In the presence of the analyte, the excitation light causes the indicator dye to emit emitted light energy in the optical interrogation zone 135, which emitted light is conveyed by the fiber 125 to the proximal end 120 and is deflected through 90° by the front surface 116 of the angled dichroic mirror 115. The emitted light is then focussed with lenses 145, filtered through a long wavelength, band-pass filter 150, and passed through a slit 155 into a monochromater 160. The resulting wavelength-dispersed signal is measured with a Pacific Instruments Model 126. photo-counting detection system. The intensity of the excitation light is measured in photon counts per second as either a function of time or of wavelength examined.

[5] = Fluorescence emission pH titration of carboxy-SNAFL-1 (curve fits for Io, pKin and B); format: physicochemical; details: for I(543/623) (max) / I(543/623) (min) / pKin: at 21° C.
Excerpt: Where the fluorescence intensity I=dh and I0 =dhT, the fluorescence intensity when the indicator is fully undissociated, Equation 4 becomes: [formula]
In this equation the additional term B is the background fluorescence of the system and is an experimentally-derived value. I can also be the ratio of the fluorescence intensities of the protonated and isosbestic forms, where. I=I545 /Iisos
The titration curves are shown for carboxy-SNAFL-1in distilled water and in a 0.67 M solution of NaCl. The solid lines are the theoretical curve fits using Equation 6. […] Experiments were carried out in 0.67 M NaCl because it is necessary to balance the osmotic pressure of the indicator solution in the sensor to that of the test solution. The osmotic pressure of the seawater is equivalent to 0.67 M NaCI.
The solid lines in FIG. 2 are theoretical fits of Equation 5. The results for Io, pKin, and B are summarized in Table 2 together with typical values reported elsewhere [Walt, D. R, Gabor, G., Goyet, C. Anal. Chim. Actca 1993, 274, 47; DeGrandpre, M. D., Anal. Chem. 1993, 65 (4), 331; Whitaker, J. E., Haugland, R. P., Prendergast, R P. Anal. Biochem. 1991, 194, 330].

[6] = 13 and 14, at 21° C., cited from earlier work
[7] = distilled water (25° C.), 488 nm excitation

Substance: 5' (and 6')-carboxyseminaphthofluorescein [carboxy-SNAFL-1]
- I(543/623) (max) [1]: 6.13
- I(543/623) (min) [1]: 0.09
- pKin [1]: 7.75
- I(543/623) (max) [2]: 5.54
- pKin [2]: 7.98
- Emission (Ex. = 488 nm) (acid) ([2]; acid form): 545 nm
- Emission (Ex. = 488 nm) (base) ([2]; base form): 610 nm
- ΔH° [3]: 3.78 kcal/mol
- ΔS° [3]: -22.6 cal mol^-1 K^-1
- ΔpH/ΔT [3]: 0.0192 ° C.^-1
- isosbestic point ([4]; Ex.=488 nm): 625 nm
- emission maximum, deprotonated form [4, 7]: 620 nm
- emission maximum, protonated form [4, 7]: 540 nm
- emission peak, deprotonated form ([4]; excited at 488 nm): 620 nm
- emission peak, protonated form ([4]; excited at 488 nm): 540 nm
- Emission (Ex. = 488 nm) (acid) ([4]; in 0.67M NaCl): 542 nm
- Emission (Ex. = 488 nm) (base) ([4]; in 0.67M NaCl): 620 nm
- Emission (Ex. = 488 nm) (isos) ([4]; in 0.67M NaCl): 624 nm
- Emission (Ex. = 488 nm) (acid) ([4]; in H2O): 545 nm
- Emission (Ex. = 488 nm) (base) ([4]; in H2O): 618 nm
- Emission (Ex. = 488 nm) (isos) ([4]; in H2O): 632 nm
- effect of increasing ionic strength on maximum fluorescence intensity ([5]; distilled water vs 0.67 M NaCl): decreases with increasing ionic strength
- effect of increasing ionic strength on pKin ([5]; distilled water vs 0.67 M NaCl): decreases pKin
- I(543/623) (max) ([5]; in 0.67M NaCl): 5.27
- I(543/623) (min) ([5]; in 0.67M NaCl): 0.129
- pKin ([5]; in 0.67M NaCl): 7.67
- I(543/623) (max) ([5]; in H2O): 5.41
- I(543/623) (min) ([5]; in H2O): 0.145
- pKin ([5]; in H2O): 8.01
- Absorbance (acid) ([6]; acid form): 481 nm and 510 nm
- Emission (Ex. = 488 nm) (acid) ([6]; acid form): 542 nm
- Absorbance (base) ([6]; base form): 539 nm
- Emission (Ex. = 488 nm) (base) ([6]; base form): 623 nm
- Emission (Ex. = 488 nm) (isos) ([6]; isosbestic): 615 nm
